The text below walks through data of US20240398806A1, “Compositions For and Methods of Treating and/or Preventing Pain” (Duke University, priority 2021, published 2024).

A word on the half-life: it is how long it takes for the measured level to halve.

Like-named read-outs stand apart in the source and are kept apart here.

Data set [1] is described as follows: Plantar incision-induced post-operative pain (mechanical allodynia) in WT and Arrb2 KO mice. Format: in vivo. The note with it: 12 mg/kg IP.
Another data set concerns the target NTSR1 (Homo sapiens, UniProt P30989). Kind of data set: Cellular assay of β-arrestin-2 translocation in cells expressing NTSR1. Format: cell-based. Also noted: expressed in transfected cells; host or cells: HEK293T cell membranes. The protocol:
First, using cellular assays, whether IND candidates such as SBI-810 are similar or better than SBI-553 as β-arrestin biased agonist at NTSR1. is assessed. The chemical entities used in this work were synthesized and validated. However, routine validation of the profile of these compounds is performed routinely using both cellular and in vivo assays. For example, HEK293 cells that express either the NTSR1 or NTSR2 are used to assess the functional profile of the various chemical probes. In addition, a series of genetically engineered mouse lines are used to provide an in vivo validation of novel chemical entities for their abilities to module behaviors in these animals.
Fourth, cellular assays are used to establish that IND ready analogs like SBI-810 are still selective for the NTSR1 rather than NTSR2. The specificity of the lead compounds toward NTSR1. NTSR2. and β-arrestin-2 are tested in respective cellular assays. More specifically, cells expressing either NTSR1 or NTSR2 are used to assess the function of various compound. […] This translocation is not observed in cells expressing NTSR2.
Fourth, genetically engineered mice are used to assess the effects and mechanisms of novel ligands. The specificity of the lead compounds toward NTSR1, NTSR2, and β-arrestin-2 dependent signaling is examined. […]

A short description of data set [2]: Pharmacokinetics in monkey (IV and PO). Format: in vivo. The note with it: for AUC: monkey; for MRT last: read-out: MRT0-last.
A short description of data set [3]: Cocaine- and methamphetamine-induced hyperlocomotion, open field. Format: in vivo, mice (C57BL/6J background). The note with it: 12 mg/kg i.p., WT mice. The protocol: Once stable performance was achieved, self-administration was assessed once daily in 60 min sessions. Animals received vehicle (saline, i.p.) or SBI-553 (2, 6, or 12 mg/kg, i.p.) immediately prior to placement into self-administration chambers with access to cocaine at doses of 0.1, 0.3, 0.5, or 1 mg/kg/infusion. FIG. 7B-FIG. 7C show cocaine-induced and methamphetamine-induced hyperlocomotion.
Open-field testing is used to analyze animal movement. The Accuscan open field (Omnitech Electronics, Inc.) was used to assess locomotor activity as previously described (Toth et al., 2018: Slosky L M, et al. (2020)). Here, animal movement is determined by the breaking of gridded photocell beams.
The effect of SBI-553 on cocaine self-administration was both cocaine-dose dependent and SBI-553-dose dependent. […] In the presence of β-arrestin2, SBI-553 reduced activity in mice. A 12 mg/kg (i.p.) dose of SBI-553 decreased both cocaine-and methamphetamine-induced hyperlocomotion in wild-type (WT) mice on a C57BL/6J background (FIG. 7B-FIG. 7C). […] Conversely, a significant reduction in locomotion was absent in global β-arrestin2 KO mice (Slosky L M, et al. (2020) Cell. 181(6):1364-1379e14).

NTSR1, sequence (P30989 whole entry): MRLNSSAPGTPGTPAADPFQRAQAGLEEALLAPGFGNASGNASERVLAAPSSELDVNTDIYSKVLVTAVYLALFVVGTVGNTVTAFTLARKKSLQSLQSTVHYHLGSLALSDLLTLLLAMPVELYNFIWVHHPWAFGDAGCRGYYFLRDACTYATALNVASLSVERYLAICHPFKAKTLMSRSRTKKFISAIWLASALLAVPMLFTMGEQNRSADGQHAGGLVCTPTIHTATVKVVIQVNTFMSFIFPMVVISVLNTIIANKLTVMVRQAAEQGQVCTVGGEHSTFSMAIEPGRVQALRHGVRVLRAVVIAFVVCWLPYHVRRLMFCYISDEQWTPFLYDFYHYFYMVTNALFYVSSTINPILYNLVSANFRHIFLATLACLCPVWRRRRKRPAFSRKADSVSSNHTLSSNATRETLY

As for `COc1ccccc1C1CCN(c2nc(C3(F)CC3)nc3ccc(N(C)CCO)cc23)CC1` [SBI-553], the “Duration of analgesic effect” value in data set [1] is listed as “more than 4.5 hr”. In addition, the “Time after injection at which analgesic effect was observed” value in data set [1] was determined as 2 h. Moreover, the “Plantar incision-induced mechanical allodynia” value is listed as “not” in data set [1] (Arrb2 KO mice) and “significantly reduced” in data set [1] (WT mice). Also, the “Translocation of β-arrestin-2 to intracellular compartments” value at NTSR1 was “demonstrate translocation of β-arrestin-2”. Besides, the Co was 4572 ng/mL in data set [2] (Monkey, IV 5 mg/kg) and 67.6 ng/mL in data set [2] (Monkey, PO 20 mg/kg). Further, in data set [2] (Monkey, IV 5 mg/kg), the T2/2 was 4.78 h. This molecule also had a CI in data set [2] (Monkey, PO 20 mg/kg) of 8 mL/min/kg. The Levels in plasma entry in data set [2] (following i.v. and p.o. dosing) is listed as “good levels in plasma”. For the same molecule, the AUC in data set [2] (plasma, iv, 5 mg/kg, Monkey, IV 5 mg/kg, read-out: AUCo-inf) stood at 4340 ng·h/mL; in data set [2] (plasma, iv, 5 mg/kg, Monkey, IV 5 mg/kg, read-out: AUCo-last), 4280 ng·h/mL; in data set [2] (plasma, po, 20 mg/kg, Monkey, PO 20 mg/kg, read-out: AUCo-inf), 864 ng·h/mL; in data set [2] (plasma, po, 20 mg/kg, Monkey, PO 20 mg/kg, read-out: AUCo-last) it was 797 ng·h/mL. This molecule came in with a clearance in data set [2] (plasma, Monkey, IV 5 mg/kg) of 19.2 mL/min/kg. For the same molecule, the MRT last was 2.3 h in data set [2] (plasma, Monkey, IV 5 mg/kg) and 11.9 h in data set [2] (plasma, Monkey, PO 20 mg/kg). Further, the Vd in data set [2] (plasma, Monkey, IV 5 mg/kg, read-out: Vdss) came out at 3.1 L/kg. Besides, the half-life in data set [2] (plasma, Monkey, PO 20 mg/kg) is 8 h. In addition, in data set [3] (cocaine 30 mg/kg i.p.), the Cocaine-induced hyperlocomotion entry is on record as “decreased”. For the same molecule, in data set [3] (methamphetamine 2 mg/kg i.p.), the Methamphetamine-induced hyperlocomotion result is listed as “decreased”.
